Laboratory results: patent US10494378B2, “Fused ring pyrimidine compound, intermediate, and preparation method, composition and use thereof” (GUANGZHOU MAXINOVEL PHARMACEUTICALS CO., LTD., priority 2015, dated 2019)

Experiments:
Format in all cases: biochemical
FLT3-D835Y kinase = biological target: T1, FLT3-D835Y kinase (Homo sapiens, UniProt P36888, D835Y); assay: IC50 evaluation assay of FLT3-D835Y kinase inhibition (Caliper); conditions: 28° C.; average of two tests; read-out: IC50 (nM) inhibiting FLT3-D835Y kinase
T1 construct: purchased Invitrogen PR7450A
T1 sequence (P36888 27-993 D835Y): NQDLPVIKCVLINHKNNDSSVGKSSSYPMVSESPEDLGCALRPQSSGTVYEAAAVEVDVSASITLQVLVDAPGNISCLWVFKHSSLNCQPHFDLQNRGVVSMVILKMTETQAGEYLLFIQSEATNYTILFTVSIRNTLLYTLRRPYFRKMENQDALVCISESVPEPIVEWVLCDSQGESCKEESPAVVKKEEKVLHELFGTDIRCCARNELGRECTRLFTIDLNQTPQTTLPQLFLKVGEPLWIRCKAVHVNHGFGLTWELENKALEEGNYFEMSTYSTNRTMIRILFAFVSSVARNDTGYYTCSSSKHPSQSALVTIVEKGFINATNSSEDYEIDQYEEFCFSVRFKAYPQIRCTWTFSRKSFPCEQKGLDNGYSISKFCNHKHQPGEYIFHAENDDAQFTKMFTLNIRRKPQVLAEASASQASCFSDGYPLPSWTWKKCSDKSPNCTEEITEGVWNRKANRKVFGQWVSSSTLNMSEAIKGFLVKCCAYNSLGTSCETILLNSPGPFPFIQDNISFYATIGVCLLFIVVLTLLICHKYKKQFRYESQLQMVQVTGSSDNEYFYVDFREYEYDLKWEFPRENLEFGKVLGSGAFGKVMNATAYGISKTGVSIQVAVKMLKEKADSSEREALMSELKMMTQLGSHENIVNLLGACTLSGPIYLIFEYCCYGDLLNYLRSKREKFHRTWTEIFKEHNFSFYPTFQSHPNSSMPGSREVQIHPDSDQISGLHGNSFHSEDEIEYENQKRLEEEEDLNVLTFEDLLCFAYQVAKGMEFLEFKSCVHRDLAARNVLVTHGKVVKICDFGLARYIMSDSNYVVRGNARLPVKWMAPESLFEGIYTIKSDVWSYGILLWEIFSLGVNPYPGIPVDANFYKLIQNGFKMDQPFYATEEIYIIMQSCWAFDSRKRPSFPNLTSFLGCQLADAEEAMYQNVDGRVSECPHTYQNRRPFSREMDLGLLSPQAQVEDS
Protocol: (§1) 1. The compound was dissolved in 100% DMSO, diluted into solutions with appropriate concentration gradients with water according to experimental requirement, and added to a 96-well plate.
(§2) 2. FLT3 kinase (Carna, Cat. No. 08-154, Lot. No. 07CBS-2350), FLT3-ITD kinase (Invitrogen, Cat. No. PV6191, Lot. No. 1753453) and FLT3-D835Y kinase (Invitrogen, Cat. No. PR7450A, Lot. No. 1629729C) were diluted to the optimum concentration with the following buffer solution: 50 mM HEPES, pH 7.5, 0.0015% Brij-35, 10 mM MgCl2, 2 mM DTT. Transfer to the 96-well plate and incubate with the compound at 28° C. for a period of time.
(§3) 3. The buffer solution (100 mM HEPES, pH 7.5, 0.0015% Brij-35, 0.2% Coating Reagent and […]) was added to terminate the reaction.
(§4) 4. The conversion rate was read with Caliper Reader. The inhibition rate was calculated as the average of two tests.

FLT3-ITD kinase = biological target: T2, FLT3-ITD kinase (Homo sapiens, UniProt P36888); assay: IC50 evaluation assay of FLT3-ITD kinase inhibition (Caliper); conditions: 28° C.; average of two tests; read-out: IC50 (nM) inhibiting FLT3-ITD kinase
T2 sequence (P36888 1-993): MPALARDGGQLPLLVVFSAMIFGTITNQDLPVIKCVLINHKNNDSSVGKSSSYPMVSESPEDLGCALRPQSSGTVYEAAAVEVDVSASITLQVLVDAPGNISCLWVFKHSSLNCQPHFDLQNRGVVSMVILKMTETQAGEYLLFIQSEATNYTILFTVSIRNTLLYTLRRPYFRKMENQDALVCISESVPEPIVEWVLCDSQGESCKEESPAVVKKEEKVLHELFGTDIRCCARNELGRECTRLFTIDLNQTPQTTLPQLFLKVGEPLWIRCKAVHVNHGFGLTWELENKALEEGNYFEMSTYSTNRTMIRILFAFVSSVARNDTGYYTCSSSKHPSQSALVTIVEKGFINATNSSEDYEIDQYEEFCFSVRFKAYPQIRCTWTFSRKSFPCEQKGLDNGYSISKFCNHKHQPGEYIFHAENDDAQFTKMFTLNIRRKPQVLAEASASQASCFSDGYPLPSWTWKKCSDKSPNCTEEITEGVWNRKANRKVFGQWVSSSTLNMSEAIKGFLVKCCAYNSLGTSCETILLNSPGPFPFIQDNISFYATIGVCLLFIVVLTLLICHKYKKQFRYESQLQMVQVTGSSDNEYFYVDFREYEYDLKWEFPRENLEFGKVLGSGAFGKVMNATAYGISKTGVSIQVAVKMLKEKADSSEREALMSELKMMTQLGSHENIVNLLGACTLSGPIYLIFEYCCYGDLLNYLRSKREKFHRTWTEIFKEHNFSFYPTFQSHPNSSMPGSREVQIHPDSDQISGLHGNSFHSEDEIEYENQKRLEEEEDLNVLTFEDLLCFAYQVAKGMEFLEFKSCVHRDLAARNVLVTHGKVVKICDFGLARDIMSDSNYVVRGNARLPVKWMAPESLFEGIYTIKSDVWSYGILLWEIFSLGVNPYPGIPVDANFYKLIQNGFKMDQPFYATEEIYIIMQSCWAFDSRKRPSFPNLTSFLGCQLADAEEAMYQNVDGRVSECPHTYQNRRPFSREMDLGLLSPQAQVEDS
Protocol: as §1, §2, §3, §4

c-Src kinase = biological target: T3, c-Src kinase (Homo sapiens, UniProt P12931); assay: IC50 evaluation assay of Src family kinase inhibition: c-Src; conditions: 28° C.; average of two tests; read-out: IC50 (nM) inhibiting Src family kinase c-Src
T3 construct: purchased Carna 08-173
Protocol: as §1
2. c-Src kinase (Carna, Cat. No. 08-173, Lot. No. 05CBS-1367), LYNαkinase (Carna, Cat. No. 08-171, Lot. No. 06CBS-3296D), FYN kinase (Carna, Cat. No. 08-068, Lot. No. 05CBS-1032), LCK kinase (Carna, Cat. No. 08-170, Lot. No. 07CBS-2482), HCK kinase (BPS, Cat. No. 40440, Lot. No. 1001), FGR kinase (Carna, Cat. No. 08-166, Lot. No. 05CBS-2781), YES kinase (Carna, Cat. No. 08-175, Lot. No. 06CBS-3247) were diluted to the optimum concentration with the following buffer solution: 50 mM HEPES, pH 7.5, 0.0015% Brij-35, 10 mM MgCl2, 2 mM DTT. Transfer to the 96-well plate and incubate with the compound at 28° C. for a period of time.
as §3, §4

T3 sequence (P12931 whole entry): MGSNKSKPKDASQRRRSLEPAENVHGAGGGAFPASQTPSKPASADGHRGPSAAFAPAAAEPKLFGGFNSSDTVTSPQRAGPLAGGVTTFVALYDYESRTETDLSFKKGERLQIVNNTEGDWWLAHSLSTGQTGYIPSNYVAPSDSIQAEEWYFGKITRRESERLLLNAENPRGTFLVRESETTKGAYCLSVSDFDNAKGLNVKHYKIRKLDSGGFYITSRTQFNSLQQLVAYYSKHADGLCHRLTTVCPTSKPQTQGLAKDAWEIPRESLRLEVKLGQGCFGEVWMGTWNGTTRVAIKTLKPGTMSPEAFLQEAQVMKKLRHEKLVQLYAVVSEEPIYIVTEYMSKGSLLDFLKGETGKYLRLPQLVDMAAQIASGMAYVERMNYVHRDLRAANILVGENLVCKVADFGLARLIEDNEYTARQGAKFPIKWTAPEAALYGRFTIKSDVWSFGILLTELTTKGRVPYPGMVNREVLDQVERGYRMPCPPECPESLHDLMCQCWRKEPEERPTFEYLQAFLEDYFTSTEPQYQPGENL

IC50 (FLT3-D835Y kinase) [nM] | IC50 (FLT3-ITD kinase) [nM] | IC50 (c-Src kinase) [nM] | SMILES
0.23 | 0.33 | 6.3 | COc1cc(F)ccc1-c1c(C)sc2cnc(Nc3cnn(C4CCN(CCO)CC4)c3)nc12 [Compound 34, 2-[4-(4-{[7-(4-fluoro-2-methoxyphenyl)-6-methylthieno[3,2-d]pyrimidinyl-2-yl]amino}-1H-pyrazol-1-yl)-piperidinyl-1-yl]-1-ethanol]
0.2 | 0.34 | 6 | COc1cc(F)ccc1-c1c(C)sc2cnc(Nc3cnn(C4CCNCC4)c3)nc12 [Compound 31, N-[7-(4-fluoro-2-methoxyphenyl)-6-methylthieno[3,2-d]pyrimidinyl-2-yl]-1-(piperidinyl-4-yl)-1H-pyrazol-4-amine]
